Active and inactive are the calls of the source.
Key:
[1] = biological target: Ras and Rab interactor 1/Tyrosine-protein kinase ABL1 (Homo sapiens, UniProt P00519+Q13671); type: functional;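 note: biochemical TR-FRET dose-response test measuring inhibition of binding between Rin1 and Abl proteins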
[2] = biological target: T1, Long-chain-fatty-acid--AMP ligase FadD28 (Mycobacterium tuberculosis, UniProt P9WQ59); test: Fluorescence polarization aasay to screen for inhibitors that compete for the binding of FadD28 to a bisubstrate Measured in Biochemical System Using Plate Reader - 2147-01_Inhibitor_Dose_CherryPick_Activity.; type: functional, Mycobacterium tuberculosis H37Rv
T1 sequence (P9WQ59 whole entry): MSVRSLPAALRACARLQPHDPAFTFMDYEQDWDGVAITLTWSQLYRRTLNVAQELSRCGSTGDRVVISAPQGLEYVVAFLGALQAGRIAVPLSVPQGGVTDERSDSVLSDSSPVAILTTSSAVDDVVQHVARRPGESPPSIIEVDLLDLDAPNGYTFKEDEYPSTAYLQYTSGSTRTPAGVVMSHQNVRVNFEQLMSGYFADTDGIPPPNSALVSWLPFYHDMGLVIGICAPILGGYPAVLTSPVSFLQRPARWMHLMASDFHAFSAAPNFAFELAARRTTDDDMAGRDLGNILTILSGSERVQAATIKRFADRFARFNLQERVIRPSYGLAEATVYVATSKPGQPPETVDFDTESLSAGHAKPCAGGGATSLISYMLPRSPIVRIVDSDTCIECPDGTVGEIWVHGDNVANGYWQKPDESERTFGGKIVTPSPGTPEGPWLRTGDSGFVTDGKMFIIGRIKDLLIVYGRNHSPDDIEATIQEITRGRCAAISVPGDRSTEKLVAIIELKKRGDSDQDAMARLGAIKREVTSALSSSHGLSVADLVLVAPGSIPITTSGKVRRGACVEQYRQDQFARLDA

[3] = biological target: Prothrombin (Homo sapiens, UniProt P00734); test: Thrombin 1536 HTS Dose Response Confirmation. [Related pubchem assays: 1046 (Thrombin 1536 HTS; hits were confirmed in this assay)]; type: functional
[4] = system: H9c2; test: cells; type: functional, cell-based; settings: Rattus norvegicus, H9c2, Myocardium;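 note: confirmatory concentration-response retest of ultra-high-throughput screening hits for modulation of myocardial damage; cell death induced by hydrogen peroxide oxidative stress; compound pretreatment for 60 min then peroxide exposure for 2 h; potency is for protecting the cells against peroxide damage rather than for killing them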
[5] = biological target: T2, Microphthalmia-associated transcription factor (Homo sapiens, UniProt O75030); test: TRPM1 promoter luciferase signal decrease, dose response, MITF inhibitor project, cell-based, SK-MEL-5, cherry-picked, set 3 (AID 493073); type: functional
T2 sequence (O75030 whole entry): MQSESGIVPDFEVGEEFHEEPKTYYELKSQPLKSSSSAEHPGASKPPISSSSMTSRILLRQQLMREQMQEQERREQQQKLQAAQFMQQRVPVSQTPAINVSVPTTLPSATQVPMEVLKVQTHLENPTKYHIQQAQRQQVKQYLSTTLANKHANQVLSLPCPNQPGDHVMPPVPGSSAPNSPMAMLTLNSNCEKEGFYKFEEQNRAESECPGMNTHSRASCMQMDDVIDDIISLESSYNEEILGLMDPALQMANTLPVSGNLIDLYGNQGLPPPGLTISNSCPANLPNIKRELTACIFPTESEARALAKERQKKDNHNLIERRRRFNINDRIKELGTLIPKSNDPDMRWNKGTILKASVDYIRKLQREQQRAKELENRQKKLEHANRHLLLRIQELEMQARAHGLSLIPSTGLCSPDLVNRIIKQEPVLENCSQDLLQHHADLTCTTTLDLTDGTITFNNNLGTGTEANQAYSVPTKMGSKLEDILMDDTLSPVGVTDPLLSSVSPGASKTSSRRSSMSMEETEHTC

[6] = system: Vero; test: cells; type: functional, cell-based; settings: Chlorocebus sabaeus
[7] = inhibitors of intracellular T. cruzi replication, confirmation, NIH3T3 host cells, beta-gal luminescence (AID 2044); type: functional, cell-based;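 note: intracellular parasites grown in NIH/3T3 mouse fibroblasts as host cells; luminescent beta-galactosidase reporter signal from transgenic T. cruzi replicating inside host cells; inhibitors lower the luminescence signal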
[8] = biological target: T3, Replicative DNA helicase DnaB (Mycobacterium tuberculosis, UniProt P9WMR3); test: DnaB intein splicing inhibitors, dose response, biochemical, cell-free fluorescence (AID 449749); type: functional
T3 sequence (P9WMR3 whole entry): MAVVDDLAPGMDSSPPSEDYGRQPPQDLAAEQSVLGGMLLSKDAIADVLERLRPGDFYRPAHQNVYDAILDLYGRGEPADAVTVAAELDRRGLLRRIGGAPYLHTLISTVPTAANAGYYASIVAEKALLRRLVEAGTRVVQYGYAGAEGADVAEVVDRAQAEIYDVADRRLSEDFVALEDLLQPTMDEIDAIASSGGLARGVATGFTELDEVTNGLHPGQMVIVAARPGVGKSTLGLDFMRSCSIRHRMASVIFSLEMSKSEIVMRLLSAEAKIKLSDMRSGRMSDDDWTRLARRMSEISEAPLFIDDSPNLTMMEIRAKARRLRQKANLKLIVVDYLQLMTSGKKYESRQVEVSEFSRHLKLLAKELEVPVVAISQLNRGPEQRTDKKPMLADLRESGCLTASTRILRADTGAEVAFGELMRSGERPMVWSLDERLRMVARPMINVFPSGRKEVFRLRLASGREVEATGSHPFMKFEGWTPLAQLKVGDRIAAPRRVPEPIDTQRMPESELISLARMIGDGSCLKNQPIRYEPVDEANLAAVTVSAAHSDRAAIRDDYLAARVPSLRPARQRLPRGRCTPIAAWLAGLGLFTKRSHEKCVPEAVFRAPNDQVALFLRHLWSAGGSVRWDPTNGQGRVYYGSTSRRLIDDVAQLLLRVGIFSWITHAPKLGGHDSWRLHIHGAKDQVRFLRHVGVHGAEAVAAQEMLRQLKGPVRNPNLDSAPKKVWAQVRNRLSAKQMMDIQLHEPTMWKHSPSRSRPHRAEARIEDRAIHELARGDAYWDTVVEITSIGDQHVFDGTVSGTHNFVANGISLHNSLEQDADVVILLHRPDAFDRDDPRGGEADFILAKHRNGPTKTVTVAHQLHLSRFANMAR

[9] = system: Vero; test: cells; type: functional; settings: Chlorocebus sabaeus
[10] = cytotoxicity toward NIH3T3 fibroblasts, dose response, counter-screen, cell-based, ATP luminescence, mouse fibroblasts (AID 2010); type: functional;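 note: cells exposed to compound for about 90 hours before reading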
[11] = cytotoxicity toward DRD oncogenic fibroblasts, dose response, cell-based, non-viral oncogenic, luminescence (AID 1934); type: functional; settings: Homo sapiens
[12] = system: BJ; test: cells; type: functional, cell-based; settings: Homo sapiens
[13] = biological target: T4, Protein RecA (Mycobacterium tuberculosis, UniProt P9WHJ3); test: Fluorescence Cell-Free Homogeneous Dose Retest to Identify Inhibitors of RecA-Intein Splicing Activity. [Related pubchem assays (depositor defined):AID2097, AID2223, AID489010, AID492950]; type: functional
T4 sequence (P9WHJ3 whole entry): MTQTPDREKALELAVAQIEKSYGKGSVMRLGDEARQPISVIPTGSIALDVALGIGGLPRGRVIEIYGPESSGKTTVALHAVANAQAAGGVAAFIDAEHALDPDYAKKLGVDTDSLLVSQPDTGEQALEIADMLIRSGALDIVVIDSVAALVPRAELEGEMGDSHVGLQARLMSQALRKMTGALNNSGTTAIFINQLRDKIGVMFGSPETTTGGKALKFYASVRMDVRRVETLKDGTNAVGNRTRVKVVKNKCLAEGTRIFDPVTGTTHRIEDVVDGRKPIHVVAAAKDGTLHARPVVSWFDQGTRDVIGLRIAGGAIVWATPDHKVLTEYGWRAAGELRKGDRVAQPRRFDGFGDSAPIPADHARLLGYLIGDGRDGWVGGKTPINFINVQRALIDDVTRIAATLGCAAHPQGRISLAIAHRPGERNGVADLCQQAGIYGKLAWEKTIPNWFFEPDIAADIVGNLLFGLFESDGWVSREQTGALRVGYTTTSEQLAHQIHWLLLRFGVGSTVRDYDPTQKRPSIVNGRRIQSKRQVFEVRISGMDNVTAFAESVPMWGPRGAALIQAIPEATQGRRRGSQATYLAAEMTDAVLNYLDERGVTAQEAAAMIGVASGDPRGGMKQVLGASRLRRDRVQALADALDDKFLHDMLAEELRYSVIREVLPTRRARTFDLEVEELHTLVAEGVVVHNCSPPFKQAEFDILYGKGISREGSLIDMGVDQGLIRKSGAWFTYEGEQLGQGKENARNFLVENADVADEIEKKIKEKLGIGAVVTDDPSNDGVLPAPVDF

[14] = system: BJ; test: cytotoxicity toward BJ-TERT-LT-ST fibroblasts, dose response, cell-based, RAS-independent, luminescence (AID 1935); type: functional; settings: Homo sapiens;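 note: BJ fibroblasts immortalized with TERT plus LT and ST oncogenes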
[15] = system: BJ; test: cytotoxicity toward BJ-TERT fibroblasts, dose response, cell-based, RAS-independent, luminescence (AID 1933); type: functional; settings: Homo sapiens
[16] = system: BJ; test: cytotoxicity toward Ras-transformed BJeLR fibroblasts, dose response, cell-based, alamar blue fluorescence, cherrypicked samples (AID 2631); type: functional; settings: Homo sapiens;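 note: confirmatory dose-response assay in RAS-dependent BJ fibroblasts engineered with TERT, LT and ST, with cytotoxicity read by fluorescence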
[17] = Luminescence Cell-Based Dose Retest to Confirm Inhibitors of Cancer Stem Cells. [Related pubchem assays (depositor defined):AID2717, AID2721]; type: functional; settings: Homo sapiens
[18] = biological target: Paired box protein Pax-8 (Homo sapiens, UniProt Q06710); test: inhibitors of PAX8-driven TPO luciferase reporter, dose response, RMG-I cells, cherry-pick (AID 687027); type: functional, cell-based;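 note: luciferase reporter driven by Pax8 target thyroperoxidase promoter measured by SteadyGlo luminescence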
Paired box protein Pax-8, sequence (Q06710 whole entry): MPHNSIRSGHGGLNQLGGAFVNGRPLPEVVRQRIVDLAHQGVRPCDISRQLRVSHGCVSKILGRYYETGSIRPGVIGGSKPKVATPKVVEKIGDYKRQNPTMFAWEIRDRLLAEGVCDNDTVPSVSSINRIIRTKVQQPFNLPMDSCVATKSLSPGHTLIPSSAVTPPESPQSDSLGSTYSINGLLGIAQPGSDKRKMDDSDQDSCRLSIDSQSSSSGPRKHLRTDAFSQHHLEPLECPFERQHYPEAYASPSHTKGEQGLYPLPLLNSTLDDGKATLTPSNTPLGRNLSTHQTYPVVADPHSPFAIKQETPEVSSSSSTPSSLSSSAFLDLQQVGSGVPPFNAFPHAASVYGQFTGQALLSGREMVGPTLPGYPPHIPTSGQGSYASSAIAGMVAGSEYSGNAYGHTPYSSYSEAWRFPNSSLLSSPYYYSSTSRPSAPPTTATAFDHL

[19] = biological target: FAD-linked sulfhydryl oxidase ALR (Homo sapiens, UniProt P55789); test: inhibitors of human ALR sulfhydryl oxidase, dose response, biochemical, H2O2 detection, luminescence, cherry-pick (AID 493248)
FAD-linked sulfhydryl oxidase ALR, sequence (P55789 whole entry): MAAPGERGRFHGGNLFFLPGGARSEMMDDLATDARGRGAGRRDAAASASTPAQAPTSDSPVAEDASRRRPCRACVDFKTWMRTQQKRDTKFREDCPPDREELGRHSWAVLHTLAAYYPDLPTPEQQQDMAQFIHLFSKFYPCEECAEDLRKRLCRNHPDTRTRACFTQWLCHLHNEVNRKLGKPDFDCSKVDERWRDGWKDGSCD

[20] = intracellular Trypanosoma cruzi inhibitors in host cells – cell-based, plate reader, cherry-pick samples, set 3, dose response (AID 651818); type: functional;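 note: compounds incubated with infected cells for about four days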
[21] = HEp-2 cell cytotoxicity, dose response, cytotoxicity control for RSV inhibitor project, HTS (AID 2410); type: functional; settings: human respiratory syncytial virus
[22] = cytotoxicity in HEK-293T cells, dose response, cytotoxicity control for TCR NF-kB inhibitor project, luminescence, T-cell screen hits (AID 489026); type: functional, cell-based;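 note: cells exposed to compound about 14 hours before the viability readout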

Ras and Rab interactor 1/Tyrosine-protein kinase ABL1, sequence (P00519 whole entry): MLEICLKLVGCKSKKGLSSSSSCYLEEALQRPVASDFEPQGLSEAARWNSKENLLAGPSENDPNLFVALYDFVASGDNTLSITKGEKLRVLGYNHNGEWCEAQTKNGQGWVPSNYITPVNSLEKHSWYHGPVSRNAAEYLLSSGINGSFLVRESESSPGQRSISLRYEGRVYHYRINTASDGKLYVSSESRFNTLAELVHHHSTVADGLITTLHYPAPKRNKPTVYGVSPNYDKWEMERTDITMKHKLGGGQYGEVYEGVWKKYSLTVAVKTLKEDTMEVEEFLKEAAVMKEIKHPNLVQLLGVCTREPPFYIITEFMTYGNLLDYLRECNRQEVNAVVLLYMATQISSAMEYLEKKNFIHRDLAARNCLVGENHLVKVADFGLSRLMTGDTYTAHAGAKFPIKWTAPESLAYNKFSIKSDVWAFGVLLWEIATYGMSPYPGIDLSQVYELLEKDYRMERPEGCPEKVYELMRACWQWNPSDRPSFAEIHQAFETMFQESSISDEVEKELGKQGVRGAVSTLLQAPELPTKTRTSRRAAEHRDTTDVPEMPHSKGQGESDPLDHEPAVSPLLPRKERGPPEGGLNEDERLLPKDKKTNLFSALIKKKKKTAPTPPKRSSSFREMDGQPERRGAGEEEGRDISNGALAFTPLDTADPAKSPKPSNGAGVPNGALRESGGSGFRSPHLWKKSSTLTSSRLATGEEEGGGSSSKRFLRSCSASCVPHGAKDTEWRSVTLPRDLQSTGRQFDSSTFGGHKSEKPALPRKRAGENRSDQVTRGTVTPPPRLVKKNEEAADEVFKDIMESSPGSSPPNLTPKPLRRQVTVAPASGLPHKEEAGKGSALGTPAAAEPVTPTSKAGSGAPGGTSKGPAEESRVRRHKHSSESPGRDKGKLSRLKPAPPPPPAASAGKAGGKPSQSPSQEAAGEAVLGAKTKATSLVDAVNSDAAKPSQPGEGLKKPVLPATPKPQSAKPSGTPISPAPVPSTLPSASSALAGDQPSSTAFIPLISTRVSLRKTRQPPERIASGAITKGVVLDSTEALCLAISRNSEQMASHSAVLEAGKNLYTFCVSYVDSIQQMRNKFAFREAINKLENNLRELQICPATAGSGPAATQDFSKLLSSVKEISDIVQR
Ras and Rab interactor 1/Tyrosine-protein kinase ABL1, sequence (Q13671 whole entry): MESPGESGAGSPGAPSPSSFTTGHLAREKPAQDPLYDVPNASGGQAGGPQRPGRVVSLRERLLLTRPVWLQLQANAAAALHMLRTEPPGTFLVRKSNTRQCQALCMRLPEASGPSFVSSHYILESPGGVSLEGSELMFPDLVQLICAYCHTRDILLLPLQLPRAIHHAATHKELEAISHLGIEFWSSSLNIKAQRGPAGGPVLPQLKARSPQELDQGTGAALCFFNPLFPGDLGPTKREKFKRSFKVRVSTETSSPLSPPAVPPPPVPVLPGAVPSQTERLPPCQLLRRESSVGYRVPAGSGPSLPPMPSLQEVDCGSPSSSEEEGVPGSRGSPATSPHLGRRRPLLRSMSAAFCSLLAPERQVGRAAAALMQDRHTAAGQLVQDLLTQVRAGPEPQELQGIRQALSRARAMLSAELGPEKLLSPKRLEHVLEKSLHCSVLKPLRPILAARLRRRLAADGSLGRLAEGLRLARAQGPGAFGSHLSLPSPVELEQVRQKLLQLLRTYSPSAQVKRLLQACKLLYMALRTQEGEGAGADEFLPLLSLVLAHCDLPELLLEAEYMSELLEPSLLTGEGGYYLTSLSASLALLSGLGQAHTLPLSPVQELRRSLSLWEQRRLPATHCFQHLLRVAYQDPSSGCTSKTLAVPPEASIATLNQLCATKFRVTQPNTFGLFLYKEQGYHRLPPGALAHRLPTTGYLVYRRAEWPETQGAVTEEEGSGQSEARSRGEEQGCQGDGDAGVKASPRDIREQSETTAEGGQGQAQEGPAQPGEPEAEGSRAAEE

COC(=O)c1ccc(CSc2nnc(-c3c[nH]c4ccccc34)n2C)o1
IC50 [1]: 13.8 µM (inactive)

CCc1cccc(NC(=O)CN2C(=O)NC3(CCCCCCC3)C2=O)c1
AC50 [2]: > 100 µM (inactive)

CCOC(=O)c1c(C)n(C(=O)c2ccco2)c(=O)n1C(=O)c1ccco1
IC50 [3]: 0.533 µM (active) | IC50 [1]: 11 µM (inactive)

Cc1cccc(S(=O)(=O)Nc2nc3ccccc3nc2Nc2cccc(C(=O)O)c2)c1
AC50 [2]: 91.1 µM (active)

NNC(=O)c1cc2ccccc2cc1O
IC50 [4]: > 79 µM (inactive) | AC50 [5]: 24 µM (active)

COc1ccc(C2CC(c3cccs3)=NN2C(=O)CCl)cc1OC (centres undefined)
IC50 [6]: > 25 µM (active) | EC50 [7]: 2.21 µM (active) | AC50 [8]: 8.43 µM (active) | CC50 [9]: 3.51 µM (active) | EC50 [10]: 2.64 µM (active) | EC50 [11]: 5.26 µM (inconclusive) | EC50 [12]: 6.92 µM (active) | EC50 [13]: 1.41 µM (active) | EC50 [14]: 6.05 µM (inconclusive) | EC50 [15]: 0.834 µM (active)

O=[N+]([O-])c1cccc(/C(O)=C(/C([S-])=Nc2cccc3ccccc23)[n+]2ccccc2)c1
IC50 [6]: > 25 µM (active)

COc1ccc(F)cc1CN1CCN(C(=O)CCC(=O)Nc2nnc(CC(C)C)s2)CC1
EC50 [11]: > 150 µM (inconclusive) | EC50 [12]: > 150 µM (not active) | EC50 [14]: > 150 µM (inconclusive) | EC50 [15]: > 150 µM (not active) | EC50 [16]: > 133 µM (inactive)

CCCCSc1cc(O)nc(N)n1
IC50 [1]: 22.2 µM (inactive)

O=C(Nc1ccccc1)NN(C(=O)CCl)c1ccccc1
AC50 [17]: 3.11 µM (active) | AC50 [18]: 4.57 µM (active) | AC50 [8]: 13.7 µM (active) | AC50 [5]: 8.5 µM (active) | EC50 [13]: 0.861 µM (active)

O=C(CN1C(=O)NC2(CCCc3ccccc32)C1=O)c1ccc(Br)cc1 (centres undefined)
AC50 [2]: > 100 µM (inactive)

Cc1ccc(C(=O)N2CC(C)CC(C)C2)cc1NC1=NC2CS(=O)(=O)CC2S1 (centres undefined)
IC50 [1]: 14.3 µM (inactive)

O=C(O)c1ccc2c(c1)C(=O)N(c1ccc(Nc3ccccc3)cc1)C2=O
AC50 [19]: 25.8 µM (active) | AC50 [2]: > 100 µM (inactive)

COc1cc(NC(=O)c2cccs2)c(OC)cc1NC(=O)CCC(=O)Nc1ccc2ncccc2c1
EC50 [11]: > 150 µM (not active) | EC50 [12]: 8.14 µM (active) | EC50 [14]: > 150 µM (not active) | EC50 [15]: > 150 µM (not active) | EC50 [16]: 4.28 µM (inconclusive)

Nc1ncnc2c1ncn2[C@@H]1O[C@H](CNCc2ccc(OCC(=O)Nc3ccccn3)cc2)[C@@H](O)[C@H]1O
AC50 [2]: > 100 µM (inactive)

O=C(COC(=O)c1ccc(F)c([N+](=O)[O-])c1)NC(=O)NCc1ccccc1
AC50 [5]: 13.6 µM (active)

Nc1cc[n+]([O-])cc1CCc1ccccc1
IC50 [1]: 23.3 µM (inactive)

O=C(Cc1ccc(NC(=O)C2CCN(C(=O)c3ccccc3)CC2)cc1)Nc1ccc(C(=O)N2CCOCC2)cc1
IC50 [1]: 6.48 µM (active)

C[C@H](CO)N1C[C@H](C)[C@@H](CN(C)Cc2ccc(C(=O)Nc3ccccc3N)cc2)Oc2c(NC(=O)c3nc4ccccc4s3)cccc2C1=O
AC50 [20]: 1.6 µM (active)

C[C@H]1CN([C@@H](C)CO)C(=O)c2cccc(NC(=O)CCCCCC(=O)Nc3ccccc3N)c2O[C@H]1CN(C)S(=O)(=O)c1ccc(Cl)cc1
AC50 [20]: 3.53 µM (active)

C[C@@H]1CCCCO[C@@H](CN(C)C(=O)Nc2ccc(C(F)(F)F)cc2)[C@@H](C)CN([C@H](C)CO)C(=O)c2cc(NC(=O)Cc3ccccc3)ccc2O1
AC50 [20]: 4.33 µM (active)

C[C@H](CO)N1C[C@H](C)[C@H](CN(C)S(=O)(=O)c2cccs2)Oc2c(NC(=O)Nc3ccc(C(F)(F)F)cc3)cccc2C1=O
AC50 [20]: 4.19 µM (active)

Cc1cccc(-n2c(C)cc(/C=N\NC(=O)c3cccs3)c2C)c1
IC50 [6]: 14.7 µM (active) | CC50 [9]: > 25 µM (active) | CC50 [21]: 23.4 µM (active)

C[C@]12CC[C@H](O)C[C@H]1CC[C@@H]1[C@@H]2C[C@@H](O)[C@]2(C)[C@@H](C3=CC(=O)OC3)CC[C@]12O [DIGOXIGENIN]
AC50 [17]: 1.16 µM (active) | AC50 [18]: 2.35 µM (active) | IC50 [6]: < 0.05 µM (active) | CC50 [9]: 2.1 µM (active) | IC50 [22]: > 80 µM (inactive)

Source: ChEMBL document CHEMBL1201862, “PubChem BioAssay data set” (2004)
